Data published in patent US8633314B2, “Forms of a multicyclic compound” (Cephalon, Inc., priority 2009, dated 2014).
Blank lines part the entries; values can stand above or below the molecule they belong to.

Assays:
Assay type in all cases: physicochemical
[1] = Solid state stress stability (storage; XRPD and stability-indicating HPLC)
Method: Typically 10 μL aliquots of the sample solutions were diluted to 1 mL with acetonitrile and the assay concentrations were determined from an average of duplicate injections using the following HPLC method. The purity and impurity analyses are done using conventional HPLC.
Crystallization studies were performed to investigate polymorphism in 48 different solvents. Solvents were selected on the basis of acceptability (ICH Class 3 and 2) and to give a range of dielectric constants, dipole moments and functional groups. Two starting materials were selected: Form A0 and Lot 7 (a mixture of Form A0, Form HC0 and Form HD0). When possible, full characterization was performed on the new forms that were generated during the polymorphism screening of Compound I. This characterization consisted of: XRPD, thermal analysis, DVS, storage at 40° C./75% RH and purity.
Stress stability studies were performed to get a timely impression of the influence of temperature and humidity on form stability. A stability-indicating HPLC assay method was developed for quantitation of Compound I and its major degradation product, 7-methoxy-1,2,3,11-tetrahydro-5,11-diaza-benzo[a]trindene-4,6-dione, previously referred to as “Compound E”.

[2] = Dynamic vapor sorption (DVS)
Method: Gravimetric vapor sorption experiments were carried out using the DVS-HT instrument (Surface Measurement Systems, London, UK). This instrument measures the uptake and loss of vapor gravimetrically using a recording ultra-microbalance with a mass resolution of ±0.1 μg. The vapor partial pressure (±1.0%) around the sample was controlled by mixing saturated and dry carrier gas streams using electronic mass flow controllers. The desired temperature was maintained at ±0.1° C.
The samples (10-25 mg) were placed into the DVS-HT instrument at the desired temperature. Two types of dynamic vapor sorption experiments were performed: • 1. The sample was initially dried in stream of dry air (<0.1% relative humidity (RH)) for 20 hours to establish a dry mass and exposed to two 0-90% RH cycles (in 10% RH increments). • 2. The sample was exposed at 90% RH for 20 hours and exposed to two 90-0% RH cycles (in 10% RH increments). Infrared Spectrometry (FTIR)

[3] = Relative stability of slurries in water (XRPD of residual solid); conditions: slurried overnight in 2 ml water, all conditions investigated
Method: Two ml of water was added to a few milligrams of Compound I forms. The samples were slurried overnight. A small sample of solid was removed and analyzed by XRPD. […] The hydrate form appears to be more thermodynamically stable than Form A0 between 5 and 45° C.

[4] = Well plate crystallization with added water (forms found)
Method: B. Plates containing 10 volumes of Compound I (40 mg of Lot 7 in 400 μL) were heated from 20° C. to an initial temperature of 80° C. at a rate of 4.8° C./min and after 30 minutes, cooled at a slow (0.28° C./min), or fast (10° C./min) rate to a final temperature of 5° C. and kept at that temperature for 18 hours. The crystallization experiments were carried out in glass vial (4 mL) well plates, and solid material was isolated by filtration. The solid was dried at 57° C. for 10 hours.

[5] = Variable temperature X-ray powder diffraction (VT-XRPD); conditions: 150° C. to 200° C., after the dehydration
Method: Variable temperature studies were performed under a nitrogen atmosphere with an Anton Paar TTK450 temperature chamber under computer control through an Anton Paar TCU100 temperature control unit. Two measurement schemes were used, restricted and continuous. In the restricted mode, measurements were made, only after the TK450 chamber reached the requested temperature. In the continuous mode, the sample was heated at 10° C./minute and fast scans were measured as the temperature changed. After the requested temperature was reached, the sample was cooled at 30 or 35° C./minute and a slower scan measured 25° C.

[6] = Mechanical stress: grinding by mortar and pestle, milling by Wig-L-Bug; conditions: three five-minute grinding intervals
Method: Approximately 100 mg of Compound I was ground at different times ranging from 5 to 27 min in an agate mortar. Samples were removed for XRPD and thermal analysis. The grinding process was stopped every 5 minutes to scrape and remix powder cakes at the curvature end of the jars to ensure homogenous grinding.
A Wig-l-Bug® (Piketech, USA) was used to grind Compound I Form A0, HA0 and HB0 (mixture of Forms HC0 and HD0). Each sample (50 mg) was ground for periods of 5 and 10 minutes or until no change was observed. Each milling was carried out in a 2.82 cm^3 container using 0.9 g stainless steel ball ([…]). The vial is swung through a 6.5° arc at 3200 rpm, causing the ball to strike the end of the vial at over 100 Hz.

[7] = Regular DVS (0 to 90% RH), listed as HC0

Structure (SMILES): COc1cccc2[nH]c3c4c(c5c(c3c12)C(=O)N(CN1CCN(C)CC1)C5=O)CCC4 [Form HC0, 4,5,6,7-tetrahydro-11-methoxy-2-[(4-methyl-1-piperazinyl)methyl]-1H-cyclopenta[a]pyrrolo[3,4-c]carbazole-1,3(2H)-dione]
Chemical Stability (HPLC (post 4 weeks at 40° C./75% RH (Area %))) ([1]; 40° C./75% RH): 99.0 Area % | HPLC % Compound I ([1]; 40° C./75% RH, 0 days): 92.6% Compound I, | XRPD (form found) ([1]; 40° C./75% RH, 0 days): HC0 | HPLC % Compound I ([1]; 40° C./75% RH, 28 days): 93.3% Compound I, | HPLC % others ([1]; 40° C./75% RH, 28 days): 0.2% others | XRPD (form found) ([1]; 40° C./75% RH, 28 days): HC0 | DVS % increase in mass at 90% RH [2]: 0.44% | At 75% RH uptake ([2]; Irregular DVS (90 to 0% RH)): 0.3% | Total uptake at 90% RH ([2]; Irregular DVS (90 to 0% RH)): 0.4% | changes by XRPD re-analysis after DVS ([2]; Irregular DVS (90 to 0% RH)): No significant changes | Total uptake at 90% RH ([2]; Regular DVS (0 to 90% RH)): 0.4% | changes by XRPD re-analysis after DVS ([2]; Regular DVS (0 to 90% RH)): No significant changes | At 75% RH uptake [2, 7]: 0.3% | Total uptake at 90% RH [2, 7]: 0.4%

Structure (SMILES): COc1cccc2[nH]c3c4c(c5c(c3c12)C(=O)N(CN1CCN(C)CC1)C5=O)CCC4 [Form S40]
HPLC % Compound I ([1]; 40° C./75% RH, 9 days): 99.4% Compound I, | XRPD (form found) ([1]; 40° C./75% RH, 9 days): transformed into monohydrate Form HC0 | XRPD (form found) ([1]; 40° C./75% RH, 9 days, listed as S40): HC0 | HPLC % Compound I ([1]; 40° C./75% RH, 17 days): 99.4% Compound I, | XRPD (form found) ([1]; 40° C./75% RH, 17 days): HC0 | HPLC % Compound I ([1]; 40° C./75% RH, 31 days): 99.4% Compound I, | XRPD (form found) ([1]; 40° C./75% RH, 31 days): HC0 | HPLC % Compound I ([1]; 40° C./75% RH, 62 days): 99.2% Compound I, | XRPD (form found) ([1]; 40° C./75% RH, 62 days): remained in this state | XRPD (form found) ([1]; 40° C./75% RH, 62 days, listed as S40): HC0

Structure (SMILES): COc1cccc2[nH]c3c4c(c5c(c3c12)C(=O)N(CN1CCN(C)CC1)C5=O)CCC4 [Form B0, 4,5,6,7-tetrahydro-11-methoxy-2-[(4-methyl-1-piperazinyl)methyl]-1H-cyclopenta[a]pyrrolo[3,4-c]carbazole-1,3(2H)-dione]
solid-solid transformation (VT-XRPD) [5]: no solid-solid transformation takes place

Further lines, with some results ahead:

Chemical Stability (HPLC (post 4 weeks at 40° C./75% RH (Area %))) ([1]; 40° C./75% RH): 99.0 Area % | HPLC % Compound I ([1]; 40° C./75% RH, 0 days): 99.6% Compound I, | XRPD (form found) ([1]; 40° C./75% RH, 0 days): HA0 | HPLC % Compound I ([1]; 40° C./75% RH, 7 days): 99.5% Compound I, | XRPD (form found) ([1]; 40° C./75% RH, 7 days): HA0 | HPLC % Compound I ([1]; 40° C./75% RH, 26 days): 99.0% Compound I, | XRPD (form found) ([1]; 40° C./75% RH, 26 days): HA0 | XRPD post DVS analysis [2]: No significant changes | DVS % increase in mass at 90% RH [2]: 1.5% | weight decrease in DVS isotherm ([2]; between 20-30% RH): 1.25% | second change in mass ([2]; second desorption phase): ~0.4% | form produced on crystallization from aqueous media ([4]; aqueous media): a mixture of Forms HC0+HD0 is produced | Forms Found ([4]; solvent not given, 0.175 volumes of water): HC0, HD0
Structure (SMILES): COc1cccc2[nH]c3c4c(c5c(c3c12)C(=O)N(CN1CCN(C)CC1)C5=O)CCC4 [Form HA0, 4,5,6,7-tetrahydro-11-methoxy-2-[(4-methyl-1-piperazinyl)methyl]-1H-cyclopenta[a]pyrrolo[3,4-c]carbazole-1,3(2H)-dione]
form after slurrying in water [3]: converted to the hydrate forms (mixture of Forms HC0 and HD0)

chemical degradation ([1]; 40° C. and 75% RH): not observed | chemical degradation ([1]; exposed to 110° C.): observed
Structure (SMILES): COc1cccc2[nH]c3c4c(c5c(c3c12)C(=O)N(CN1CCN(C)CC1)C5=O)CCC4 [Compound I, 4,5,6,7-tetrahydro-11-methoxy-2-[(4-methyl-1-piperazinyl)methyl]-1H-cyclopenta[a]pyrrolo[3,4-c]carbazole-1,3(2H)-dione]

factor of reduction in intensity of XRPD peak at 7.6° (2θ) [6]: approximately 30
Structure (SMILES): COc1cccc2[nH]c3c4c(c5c(c3c12)C(=O)N(CN1CCN(C)CC1)C5=O)CCC4 [Form HB0]
